These results are taken from patent US11166940B2, “Treatment of cardiac disorders by blocking SK4 potassium channel” (Ramot at Tel-Aviv University Ltd., priority 2016, dated 2021).

Structures are written as SMILES.

Assay [1] deals with SAN cells. The assay can be described thus: Spontaneous APs / pacing rate of isolated SAN cells from WT mice (patch clamp). It counts as cell-based, mouse. The conditions noted are these: 50 nM isoproterenol. As to the method:
(§1) WT and CASQ2 D307H KI mice were anesthetized with isofluorane and sacrificed by cervical dislocation. The heart was rapidly removed and transferred into Tyrode solution containing heparin. […] The area was cleaned, cut into small strips and washed into a Low Calcium Solution, containing (in mM): 140 NaCl, 5.4 KCl, 0.5 MgCl2, 1.2 KH2PO4, 5 HEPES-NaOH, 50 taurine, 5.5 glucose (pH 6.9). The osmolarity was adjusted if needed to 315 mOsm.
The same solution, supplemented with 1 mg/ml albumin, 200 μM CaCl2, collagenase Type I (Worthington) or liberase TH (Roche), protease (Sigma) and elastase (Sigma) was used for enzymatic digestion as previously described [See, Mesirca, P., et al. Nat Commun 5, 4664 (2014)]. In this step, the tissue was gently resuspended with a polished Pasteur pipette in this solution for 9-13 minutes at 37° C. SAN samples were then washed three times in a modified “Kraftbrühe” solution, containing (in mM): 70 glutamic acid, 80 KOH, 20 KCl, 10 γ-Hydroxybutyric acid sodium salt, 10 KH2PO4, 10 HEPES-KOH, 10 taurine, 1 mg/ml albumin, 0.1 EGTA-KOH (pH 7.2). The same solution was used to re-suspend the single cells with a pipet by vigorous up and down, between 3 to 5 minutes at 37° C. Cells were then gradually exposed to increasing concentrations of calcium, following a “Ca^2+ readaptation” protocol [Mesirca et al., 2014, supra]. Experiments were performed the same day at 33° C.
(§2) In all experiments, the coverslips were perfused at 33° C. with an external solution containing (in mM): 140 NaCl, 4 KCl, 11 Glucose, 1.2 MgCl2, 1.8 CaCl2, 5.5 HEPES titrated to pH 7.4 with NaOH and adjusted at 320 mOsm with sucrose.
The spontaneous automaticity of isolated SAN cells was recorded under perforated-patch conditions by adding 30 μM β-escin49 to the intracellular solution containing (in mM): 130 KCl, 10 NaCl, 10 HEPES, 0.2 EGTA-KOH, 2 MgATP, 6.6 Phosphocreatine, 0.05 cAMP and 1 μM free Ca^2+ (pH 7.2). To record SK4 K+ current, a voltage ramp protocol was applied. SAN and hiPS-CMs were held at −40 mV and −20 mV, respectively to substantially inactivate voltage-gated Na^+ and Ca^2+ currents. Cells were stepped from −90 mV to +60 mV for 150 ms. Then, a cocktail (solution 1) containing (in mM) 0.3 cadmium, 0.025 ZD-7288 and 0.01 E-4031 was applied extracellularly to inhibit residual L-type and T-type voltage-gated Ca2+ currents, If and the IKr currents, respectively. […] For voltage-clamp recording of SAN cells, the intracellular solution was the same to that described above for recording spontaneous automaticity.
The spontaneous electric activity of the cell was recorded in the current clamp configuration of the patch clamp technique before (black trace) and during (violet trace) exposure to 2 μM clotrimazole.
FIG. 5E (Left) presents representative traces of spontaneous APs recorded in single SAN cell from WT mice.
Background: Patch clamp records ionic current or voltage across a cell membrane.

Assay [2] has as its system SAN cells from CASQ2-D307H KI mice. The assay can be described thus: Spontaneous APs and DADs of isolated SAN cells from CASQ2 D307H KI mice. To be noted: 50 nM isoproterenol, after 1-2 minutes. Format: cell-based, mouse. As to the method:
as §1
The same solution, supplemented with 1 mg/ml albumin, 200 μM CaCl2, collagenase Type I (Worthington) or liberase TH (Roche), protease (Sigma) and elastase (Sigma) was used for enzymatic digestion as previously described [See, Mesirca, P., et al. Nat Commun 5, 4664 (2014)]. In this step, the tissue was gently resuspended with a polished Pasteur pipette in this solution for 9-13 minutes at 37° C. SAN samples were then washed three times in a modified “Kraftbrühe” solution, containing (in mM): 70 glutamic acid, 80 KOH, 20 KCl, 10 γ-Hydroxybutyric acid sodium salt, 10 KH2PO4, 10 HEPES-KOH, 10 taurine, 1 mg/ml albumin, 0.1 EGTA-KOH (pH 7.2). […] Cells were then gradually exposed to increasing concentrations of calcium, following a “Ca^2+ readaptation” protocol [Mesirca et al., 2014, supra]. […]
FIG. 5F (Left) presents representative traces of spontaneous APs recorded in single SAN cell from CASQ2 D307H KI mice. […]

In assay [3] the test system is normal hiPSC-CMs. The assay can be described thus: Spontaneous APs in hiPS-CMs derived from normal individuals. It counts as cell-based, human. The conditions noted are these: 3 μM isoproterenol. As to the method: as §2
FIG. 4E (Left) presents representative traces of spontaneous APs recorded in hiPS-CM derived from a normal individual. […] FIG. 4E (Right) are bar graphs presenting data summary of pacing rate (normalized to Ctrl; one-way ANOVA **P=0.0071, n=14), DD slope (paired t-test, ***P<0.0001, n=14) and APD50 (one-way ANOVA *P=0.0243, n=18).

Assay [4] deals with CPVT2 hiPSC-CMs. The assay can be described thus: Spontaneous APs and DADs in hiPS-CMs derived from CPVT2 (CASQ2 D307H) patients. The conditions noted are these: 3 μM isoproterenol. It counts as cell-based, human. As to the method:
as §2
FIG. 4F (Left) presents representative traces of spontaneous APs recorded in hiPS-CM derived from a CPVT2 (CASQ2 D307H) patients. From a regular pacing (black trace), DADs appeared when the cell was exposed to 3 μM isoproterenol (red trace, arrows). […] The suppression of cell 540 automaticity was reversible upon washout (blue trace). FIG. 4F (Right) present bar graphs showing data summary of pacing rate (n=17), on APD50 (n=17) and DADs (Normalized to Ctrl; one-way ANOVA***P=0.0001, n=15).

The test system of assay [5] is intact SAN tissue preparations from WT mice. The assay can be described thus: Spontaneous calcium transients ex vivo in intact SAN tissue from WT mice (Fluo-4 AM). It counts as cell-based, mouse. To be noted: 100 nM isoproterenol. As to the method: (§3) SAN tissue preparations were dissected ex vivo from WT and CASQ2-D307H KI mice as described in Torrente, A. G., et al. Proc Natl Acad Sci USA 112, 9769-9774 (2015). The dissected whole SAN tissue was pinned on a hand-made chamber and was incubated in a Tyrode solution containing 10 μM Fluo-4 AM (Thermo Fisher Scientific) and pluronic acid for 1 hour at 37° C. in the dark. The SAN tissue was washed in Tyrode at 37° C. in the dark for 10 minutes before experiments. Fluorescence of calcium transients was recorded using a photomultiplier (PTi D-104) at 35° C. and the analog signals were digitized using Digidata 1440 (Molecular Devices) and analyzed with pCLAMP 10.5 software.
(§4) To investigate the spontaneous calcium transients of the SAN, intact SAN tissue preparations dissected ex vivo from WT and CASQ2-D307H KI mice were exposed to Fluo-4 AM as previously described [Torrente, A. G., et al. Proc Natl Acad Sci USA 112, 9769-9774 (2015)].
FIG. 6A (Left) presents representative traces of spontaneous calcium transients recorded ex vivo in intact SAN tissue preparations from WT mice. […] Right: data summary of calcium transient rate (one-way-ANOVA***P=0.0003; n=12).

Assay [6] deals with intact SAN from CASQ2 D307H KI mice. The assay can be described thus: Spontaneous calcium transients ex vivo in intact SAN tissue from CASQ2-D307H KI mice (Fluo-4 AM). Format: cell-based, mouse. The conditions noted are these: 100 nM isoproterenol. As to the method:
as §3, §4
FIG. 6B presents representative traces of different types of calcium transient abnormalities recorded in intact SAN from CASQ2 D307H KI mice, termed as “local Ca^2+ release” (upper left), “double humped transients” (upper right), “large-stored released Ca^2+ waves” (lower left) and “calcium alternans” (lower right).
FIG. 6C presents representative trace of spontaneous calcium transients recorded from intact SAN of CASQ2 D307H KI. The baseline rate of calcium transients (control, black trace) yielded chaotic calcium transients (red trace) following incubation of the SAN with 100 nM isoproterenol.

For `CC(C)NCC(O)c1ccc(O)c(O)c1` (centres unmarked) [Isoproterenol], the “pacing of SAN cells” value in assay [1] was “significantly increased the pacing”. Moreover, the DADs result in assay [2] is given as “led to DADs”. In assay [3], the APD50 entry is “reduced their APD50” and the firing rate result was “significantly increased their firing rate”. In assay [4], the DADs result is “triggered DADs” and the chronotropic effect result is on record as “did not produce positive chronotropic effect”. Further, in assay [5], the “rate of calcium transients” value is given as “significantly increased”. In assay [6], the “Ca2+ transient abnormalities” value is recorded as “produced various Ca^2+ transient abnormalities”.
